According to article PMC12040969, “Design, synthesis, in silico studies, and apoptotic antiproliferative activity of novel thiazole-2-acetamide derivatives as tubulin polymerization inhibitors” (Frontiers in Chemistry, 2025):
Where “and” joins values, the source holds several entries; their conditions need not be identical. Equal values may be shown once.

Key:
[1] = Cell viability assay (MTT), normal cells; type: cell-based; details: human, MCF-10A normal mammary gland epithelial cells, four-day incubation
[2] = tested on: Caspase-3 in MDAMB-231 cancer cell line; assay: Caspase-3 activation assay; type: cell-based, human; details: MDAMB-231 cells; for Caspase-3 Fold change: relative to untreated control
Source text: (§1) […]. Supplementary Appendix A provides more information.

[3] = tested on: Caspase-9 in MDAMB-231 cancer cell line; assay: Caspase-9 activation assay; type: cell-based, human; details: MDAMB-231 cells; for Caspase-9 Fold change: relative to untreated control
Experimental: […]. Compound 10o was the least efficient derivative as caspase-9 activators (0.90 ng/mL).
as §1

[4] = tested on: Bax in MDAMB-231 cancer cell line; assay: Bax level assay; type: cell-based, human; details: MDAMB-231 cells; for Bax Fold change: relative to untreated control
Source text: as §1

[5] = tested on: Bcl-2 in MDAMB-231 cancer cell line; assay: Bcl-2 level assay; type: cell-based, human; details: MDAMB-231 cells; for Bcl-2 Fold reduction: relative to untreated control
Source text: as §1

[6] = tested on: prostatic - PC-3; assay: Antiproliferative assay (MTT) PC-3; details: for IC50: read-out: Antiproliferative activity IC50 ± SEM (µM) PC-3, PC-3, MTT
[7] = tested on: breast - MCF-7; assay: Antiproliferative assay (MTT) MCF-7; details: for IC50: read-out: Antiproliferative activity IC50 ± SEM (µM) MCF-7, MCF-7, MTT
[8] = tested on: colon - HCT-116; assay: Antiproliferative assay (MTT) HCT-116; details: for IC50: read-out: Antiproliferative activity IC50 ± SEM (µM) HCT-116, HCT-116, MTT
[9] = tested on: tubulin; assay: Tubulin polymerization inhibition assay (Cytoskeleton kit); details: for Tub %inh: 30 min, YB-EGY run; for Tub K.Activity: EC = 120, YB-EGY run; for IC50: read-out: Tubulin inhibition IC50 ± SEM, triplicate for each tested concentration;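 as to all read-outs here: Cell-free tubulin polymerization read by fluorescent reporter enhancement over a 30 min reaction, with the compound-free kit control taken as 100% activity and inhibition relative to it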
[10] = tested on: - MDAMB-231; assay: Antiproliferative assay (MTT) MDAMB-231
[11] = tested on: pancreatic - MDAMB-231; assay: Antiproliferative assay (MTT) MDAMB-231; details: for IC50: read-out: Antiproliferative activity IC50 ± SEM (µM) MDAMB-231, MDAMB-231, MTT
[12] = tested on: four human cancer cell lines (HCT-116, PC-3, MCF-7, MDAMB-231); assay: Antiproliferative assay, mean of four cell lines (GI50); details: for IC50: Homo sapiens, read-out: GI50 (average IC50)

Compound: Cc1nc(SCC(=O)Nc2nc(-c3ccccc3)cs2)sc1C(=O)/C=C/c1ccccc1 [Compound 10a, (E)-2-((5-cinnamoyl-4-methylthiazol-2-yl)thio)-N-(4-phenylthiazol-2-yl)acetamide]
- viability at 96 h, 50 µM [1]: 87%
- Caspase-3 Conc [2]: 625 ± 5 pg/mL
- Caspase-9 Conc [3]: 1.60 ng/mL and 1.60 ± 0.10 ng/mL
- Bax Conc [4]: 305 pg/mL and 305 ± 8 pg/mL
- Bcl-2 Conc [5]: 0.90 ng/mL
- Higher efficacy than sorafenib, PC-3 ([6]; PC-3 prostate cancer cell line): 1.7 fold
- IC50 [6]: 7 ± 0.6 µM
- IC50 [7]: 4 ± 0.2 µM
- IC50 [8]: 8 ± 0.7 µM
- Tub %inh ([9]; conc 0.1 (unit not given)): 16.5%
- Tub K.Activity ([9]; conc 0.1 (unit not given)): 100.18
- Tub %inh ([9]; conc 1 (unit not given)): 39.4%
- Tub K.Activity ([9]; conc 1 (unit not given)): 72.71
- Tub %inh ([9]; conc 10 (unit not given)): 60.5%
- Tub K.Activity ([9]; conc 10 (unit not given)): 47.391
- Tub %inh ([9]; conc 50 (unit not given)): 78.9%
- Tub K.Activity ([9]; conc 50 (unit not given)): 25.374
- Tub %inh ([9]; conc 100 (unit not given)): 92.7%
- Tub K.Activity ([9]; conc 100 (unit not given)): 8.7594

Compound: COc1ccc(/C=C/C(=O)c2sc(SCC(=O)Nc3nc(-c4ccc(C)cc4)cs3)nc2C)cc1 [Compound 10o, (E)-2-((5-(3-(4-methoxyphenyl)acryloyl)-4-methylthiazol-2-yl)thio)-N-(4-(p-tolyl)thiazol-2-yl)acetamide]
- viability at 96 h, 50 µM [1]: 90%
- Caspase-3 Conc [2]: 605 ± 5 pg/mL
- Caspase-3 Fold change [2]: 9 fold
- Caspase-9 Conc [3]: 0.90 ng/mL and 0.90 ± 0.10 ng/mL
- Caspase-9 Fold change [3]: 9 fold
- Bax Conc [4]: 285 pg/mL and 285 ± 7 pg/mL
- Bax Fold change [4]: 35 fold
- Bcl-2 Conc [5]: 1.05 ng/mL
- Bcl-2 Fold reduction [5]: 5 fold
- Average of Relative viability of cells (%) ([6]; PC-3, 1.56 µM): 99.3%
- Average of Relative viability of cells (%) ([6]; PC-3, 3.125 µM): 87.4%
- Average of Relative viability of cells (%) ([6]; PC-3, 6.25 µM): 61.1%
- Average of Relative viability of cells (%) ([6]; PC-3, 12.5 µM): 48.2%
- Average of Relative viability of cells (%) ([6]; PC-3, 25 µM): 31.6%
- Average of Relative viability of cells (%) ([6]; PC-3, 50 µM): 23.7%
- Average of Relative viability of cells (%) ([6]; PC-3, 100 µM): 14.3%
- IC50 [6]: 13 ± 1 µM
- Average of Relative viability of cells (%) ([7]; MCF-7, 1.56 µM): 73.4%
- Average of Relative viability of cells (%) ([7]; MCF-7, 3.125 µM): 61.6%
- Average of Relative viability of cells (%) ([7]; MCF-7, 6.25 µM): 45.1%
- Average of Relative viability of cells (%) ([7]; MCF-7, 12.5 µM): 29.7%
- Average of Relative viability of cells (%) ([7]; MCF-7, 25 µM): 20.3%
- Average of Relative viability of cells (%) ([7]; MCF-7, 50 µM): 11.9%
- Average of Relative viability of cells (%) ([7]; MCF-7, 100 µM): 7.2%
- IC50 [7]: 5 ± 0.4 µM
- Average of Relative viability of cells (%) ([8]; HCT-116, 1.56 µM): 89.1%
- Average of Relative viability of cells (%) ([8]; HCT-116, 3.125 µM): 66.5%
- Average of Relative viability of cells (%) ([8]; HCT-116, 6.25 µM): 51.6%
- Average of Relative viability of cells (%) ([8]; HCT-116, 12.5 µM): 24.5%
- Average of Relative viability of cells (%) ([8]; HCT-116, 25 µM): 22.7%
- Average of Relative viability of cells (%) ([8]; HCT-116, 50 µM): 15.2%
- Average of Relative viability of cells (%) ([8]; HCT-116, 100 µM): 7.8%
- IC50 [8]: 6 ± 0.4 µM
- Average of Relative viability of cells (%) ([10]; MDAMB-231, 1.56 µM): 61.2%
- Average of Relative viability of cells (%) ([10]; MDAMB-231, 3.125 µM): 47.1%
- Average of Relative viability of cells (%) ([10]; MDAMB-231, 6.25 µM): 37.3%
- Average of Relative viability of cells (%) ([10]; MDAMB-231, 12.5 µM): 26.7%
- Average of Relative viability of cells (%) ([10]; MDAMB-231, 25 µM): 17.6%
- Average of Relative viability of cells (%) ([10]; MDAMB-231, 50 µM): 10.2%
- Average of Relative viability of cells (%) ([10]; MDAMB-231, 100 µM): 4.5%
- More potency than sorafenib, MDAMB-231 ([11]; MDAMB-231 cancer cell line): 2.7 fold
- IC50 [11]: 3 ± 0.1 µM
- IC50 [12]: 7 µM
- Tub %inh ([9]; conc 0.1 (unit not given)): 16%
- Tub K.Activity ([9]; conc 0.1 (unit not given)): 100.77
- Tub %inh ([9]; conc 1 (unit not given)): 34%
- Tub K.Activity ([9]; conc 1 (unit not given)): 79.173
- Tub %inh ([9]; conc 10 (unit not given)): 54.8%
- Tub K.Activity ([9]; conc 10 (unit not given)): 54.254
- Tub %inh ([9]; conc 50 (unit not given)): 76.2%
- Tub K.Activity ([9]; conc 50 (unit not given)): 28.504
- Tub %inh ([9]; conc 100 (unit not given)): 90.9%
- Tub K.Activity ([9]; conc 100 (unit not given)): 10.964
- IC50 [9]: 3.62 ± 0.11 µM

Compound: Cc1nc(SCC(=O)Nc2nccs2)sc1C(=O)/C=C/c1ccc(F)cc1 [Compound 13c, (E)-2-((5-(3-(4-fluorophenyl)acryloyl)-4-methylthiazol-2-yl)thio)-N-(thiazol-2-yl)acetamide]
- viability at 96 h, 50 µM [1]: 86%
- Average of Relative viability of cells (%) ([6]; PC-3, 1.56 µM): 100%
- Average of Relative viability of cells (%) ([6]; PC-3, 3.125 µM): 99.1%
- Average of Relative viability of cells (%) ([6]; PC-3, 6.25 µM): 87.9%
- Average of Relative viability of cells (%) ([6]; PC-3, 12.5 µM): 67.7%
- Average of Relative viability of cells (%) ([6]; PC-3, 25 µM): 54.6%
- Average of Relative viability of cells (%) ([6]; PC-3, 50 µM): 42.1%
- Average of Relative viability of cells (%) ([6]; PC-3, 100 µM): 28.8%
- IC50 [6]: 34 ± 2.1 µM
- Average of Relative viability of cells (%) ([7]; MCF-7, 1.56 µM): 100%
- Average of Relative viability of cells (%) ([7]; MCF-7, 3.125 µM): 96.3%
- Average of Relative viability of cells (%) ([7]; MCF-7, 6.25 µM): 83.0%
- Average of Relative viability of cells (%) ([7]; MCF-7, 12.5 µM): 68.1%
- Average of Relative viability of cells (%) ([7]; MCF-7, 25 µM): 51.6%
- Average of Relative viability of cells (%) ([7]; MCF-7, 50 µM): 36.7%
- Average of Relative viability of cells (%) ([7]; MCF-7, 100 µM): 21.7%
- IC50 [7]: 28 ± 1.8 µM
- Average of Relative viability of cells (%) ([8]; HCT-116, 1.56 µM): 100%
- Average of Relative viability of cells (%) ([8]; HCT-116, 3.125 µM): 92.6%
- Average of Relative viability of cells (%) ([8]; HCT-116, 6.25 µM): 73.1%
- Average of Relative viability of cells (%) ([8]; HCT-116, 12.5 µM): 51.3%
- Average of Relative viability of cells (%) ([8]; HCT-116, 25 µM): 42.2%
- Average of Relative viability of cells (%) ([8]; HCT-116, 50 µM): 29.9%
- Average of Relative viability of cells (%) ([8]; HCT-116, 100 µM): 16.1%
- IC50 [8]: 18 ± 1.4 µM
- Average of Relative viability of cells (%) ([10]; MDAMB-231, 1.56 µM): 100%
- Average of Relative viability of cells (%) ([10]; MDAMB-231, 3.125 µM): 93.3%
- Average of Relative viability of cells (%) ([10]; MDAMB-231, 6.25 µM): 71.6%
- Average of Relative viability of cells (%) ([10]; MDAMB-231, 12.5 µM): 54.8%
- Average of Relative viability of cells (%) ([10]; MDAMB-231, 25 µM): 50.1%
- Average of Relative viability of cells (%) ([10]; MDAMB-231, 50 µM): 38.9%
- Average of Relative viability of cells (%) ([10]; MDAMB-231, 100 µM): 19.6%
- IC50 [11]: 23 ± 1.7 µM
- Reduced potency compared to doxorubicin (GI50) ([12]; GI50 ratio): at least 2.5 fold
- Reduced potency compared to sorafenib (GI50) ([12]; GI50 ratio): ≥ 1.5 fold
- IC50 [12]: 26 µM
- Tub %inh ([9]; conc 0.1 (unit not given)): 6.12%
- Tub K.Activity ([9]; conc 0.1 (unit not given)): 112.66
- Tub %inh ([9]; conc 1 (unit not given)): 27.4%
- Tub K.Activity ([9]; conc 1 (unit not given)): 87.115
- Tub %inh ([9]; conc 10 (unit not given)): 48.8%
- Tub K.Activity ([9]; conc 10 (unit not given)): 61.436
- Tub %inh ([9]; conc 50 (unit not given)): 71.2%
- Tub K.Activity ([9]; conc 50 (unit not given)): 34.549
- Tub %inh ([9]; conc 100 (unit not given)): 90.8%
- Tub K.Activity ([9]; conc 100 (unit not given)): 10.995
- IC50 [9]: 6.05 ± 0.18 µM

Compound: CN[C@@H]1C[C@H]2O[C@@](C)([C@@H]1OC)n1c3ccccc3c3c4c(c5c6ccccc6n2c5c31)C(=O)NC4 [Staurosporine, reference compound]
- Caspase-3 Conc [2]: 510 ± 4 pg/mL
- Caspase-3 Fold change [2]: 8 fold
- Caspase-9 Conc [3]: 1.30 ± 0.10 ng/mL
- Caspase-9 Fold change [3]: 13 fold
- Caspase-9 Conc ([3]; listed as staurosporine): 1.30 ng/mL
- Bax Conc [4]: 280 ± 7 pg/mL
- Bax Fold change [4]: 35 fold
- Bax Conc ([4]; listed as staurosporine): 280 pg/mL
- Bcl-2 Conc [5]: 1.10 ng/mL
- Bcl-2 Fold reduction [5]: 5 fold
